In patent publication US20190256474A1, “N-PHENYL-2-(3-PHENYL-6-OXO-1,6-DIHYDROPYRIDAZIN-1-YL)ACETAMIDE DERIVATIVES FOR TREATING CYSTIC FIBROSIS” (Proteostasis Therapeutics, Inc., priority 2016, published 2019):

Target: T1, ΔF508-CFTR (Homo sapiens, UniProt P13569, DEL508-508)
T1 construct: Primary lung epithelial cells homozygous for the Cystic Fibrosis-causing ΔF508 mutation were differentiated; endogenous in cells; host or cells: primary human bronchial epithelial cells (hBE), ΔF508/ΔF508
Experiment: hBE equivalent current (Ieq) assay, CFTR activity
Format: cell-based
Details: relative to a CFTR amplifier at 3 μM, ΔF508 homozygous hBE, 24 h treatment; for Activity 3 μM: compound at 3 μM; for Activity 10 μM: compound at 10 μM
Protocol: Primary lung epithelial cells homozygous for the Cystic Fibrosis-causing ΔF508 mutation were differentiated for a minimum of 4 weeks in an air-liquid interface on Costar 24 well HTS filter plates prior to the equivalent current (Ieq) measurements. Cells were apically mucus-washed for 30 minutes 24 h prior to treatment with compounds. The basolateral media was removed and replaced with media containing the compound of interest diluted to its final concentration from DMSO stocks. Treated cells were incubated at 37° C. and 5% CO2 for 24 hours. At the end of the treatment period, the media was changed to the Ieq experimental solution for 2 hours before the experiment and plates are maintained in a CO2-free incubator during this period. The plates containing the cells were then placed in pre-warmed heating blocks at 36° C.±0.5 for 15 minutes before measurements are taken. The transepithelial voltage (VT) and conductance (GT) were measured using a custom 24 channel current clamp (TECC-24) with 24 well electrode manifold. The Ieq assay measurements were made following additions with standardized time periods:
1. The baseline VT and GT values were measured for approximately 20 minutes.
2. Benzamil was added to block ENaC for 15 minutes.
3. Forskolin plus VX-770 were added to maximally activate ΔF508-CFTR for 27 minutes.
4. Bumetanide was added to inhibit the NaK2Cl cotransporter and shut-off secretion of chloride.
The activity data captured was the area under the curve (AUC) for the traces of the equivalent chloride current. The AUC was collected from the time of the forskolin/VX-770 addition until the inhibition by bumetanide addition. Correction in response to compound treatment was scored as the increase in the AUC for compound-treated samples over that of vehicle-treated samples.
The results are shown below in Table 1. + indicates activity <150% of a CFTR amplifier with compound at concentration shown and amplifier at 3 μM; ++ indicates activity >150% of a CFTR amplifier with compound at concentration shown and amplifier at 3 μM.

T1 sequence (P13569 with tags, fused parts or gaps DEL508-508): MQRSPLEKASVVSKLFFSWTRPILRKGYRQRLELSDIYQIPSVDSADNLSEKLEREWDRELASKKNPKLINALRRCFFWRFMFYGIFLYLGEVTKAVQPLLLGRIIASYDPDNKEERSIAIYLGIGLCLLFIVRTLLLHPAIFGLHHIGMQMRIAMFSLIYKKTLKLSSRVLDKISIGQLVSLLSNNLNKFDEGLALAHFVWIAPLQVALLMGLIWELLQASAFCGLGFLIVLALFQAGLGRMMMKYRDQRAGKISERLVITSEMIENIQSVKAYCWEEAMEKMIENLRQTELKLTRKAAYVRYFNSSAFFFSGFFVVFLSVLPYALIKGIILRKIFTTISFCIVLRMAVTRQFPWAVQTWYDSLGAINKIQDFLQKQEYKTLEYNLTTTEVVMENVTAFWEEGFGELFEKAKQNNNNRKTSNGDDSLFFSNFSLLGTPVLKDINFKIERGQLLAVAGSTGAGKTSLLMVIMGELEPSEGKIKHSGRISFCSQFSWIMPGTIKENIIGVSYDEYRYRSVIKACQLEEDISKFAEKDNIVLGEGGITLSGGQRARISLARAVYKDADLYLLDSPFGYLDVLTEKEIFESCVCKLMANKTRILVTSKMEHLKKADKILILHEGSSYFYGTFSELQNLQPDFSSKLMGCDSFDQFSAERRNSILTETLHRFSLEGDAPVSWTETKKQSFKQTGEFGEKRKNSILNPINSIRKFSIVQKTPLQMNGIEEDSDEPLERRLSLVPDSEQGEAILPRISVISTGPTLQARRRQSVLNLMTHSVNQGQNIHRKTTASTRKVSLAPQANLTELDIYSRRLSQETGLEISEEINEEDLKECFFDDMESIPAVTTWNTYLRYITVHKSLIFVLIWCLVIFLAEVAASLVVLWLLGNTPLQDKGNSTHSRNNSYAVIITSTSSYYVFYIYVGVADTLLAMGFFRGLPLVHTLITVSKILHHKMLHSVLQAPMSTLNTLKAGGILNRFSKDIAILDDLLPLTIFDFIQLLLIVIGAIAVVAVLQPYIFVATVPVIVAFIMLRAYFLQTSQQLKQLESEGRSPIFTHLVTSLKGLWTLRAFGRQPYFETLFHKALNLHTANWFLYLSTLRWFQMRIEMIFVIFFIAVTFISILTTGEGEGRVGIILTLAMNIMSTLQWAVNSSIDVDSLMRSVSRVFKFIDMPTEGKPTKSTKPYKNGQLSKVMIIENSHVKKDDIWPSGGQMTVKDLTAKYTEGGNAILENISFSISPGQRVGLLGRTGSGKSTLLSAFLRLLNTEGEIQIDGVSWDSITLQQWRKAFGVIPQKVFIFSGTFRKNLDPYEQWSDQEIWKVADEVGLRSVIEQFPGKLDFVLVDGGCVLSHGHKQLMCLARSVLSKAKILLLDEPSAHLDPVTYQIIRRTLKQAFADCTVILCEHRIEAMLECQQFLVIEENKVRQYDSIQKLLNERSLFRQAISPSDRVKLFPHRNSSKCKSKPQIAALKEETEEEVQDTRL

Compound	Activity 3 μM	Activity 10 μM
CCC(C(=O)Nc1ccc(C(F)(F)F)cc1)n1nc(-c2cccc(OC)c2)ccc1=O (stereo not shown) [Compound 38, 2-[3-(3-Methoxyphenyl)-6-oxo-1,6-dihydropyridazin-1-yl]-N-[4-(trifluoromethyl)phenyl]butanamide]	++ (activity >150% of a CFTR amplifier with compound at concentration shown and amplifier at 3 μM)	++ (activity >150% of a CFTR amplifier with compound at concentration shown and amplifier at 3 μM)
COc1cccc(-c2ccc(=O)n(C(C)(C(=O)Nc3ccc(C(F)(F)F)cc3)c3ccccc3)n2)c1 (stereo not shown) [Compound 54, 2-(3-(3-Methoxyphenyl)-6-oxopyridazin-1(6H)-yl)-2-phenyl-N-(4-(trifluoromethyl)phenyl)propanamide]		+ (activity <150% of a CFTR amplifier with compound at concentration shown and amplifier at 3 μM)
COc1cccc(-c2ccc(=O)n(C(C)C(=O)Nc3cc(Cl)cc(Cl)c3)n2)c1 (stereo not shown) [Compound 46, N-(3,5-Dichlorophenyl)-2-(3-(3-methoxyphenyl)-6-oxopyridazin-1(6H)-yl)propanamide]	++ (activity >150% of a CFTR amplifier with compound at concentration shown and amplifier at 3 μM)	++ (activity >150% of a CFTR amplifier with compound at concentration shown and amplifier at 3 μM)
CC(C(=O)Nc1ccc(C(F)(F)F)cc1)n1nc(-c2ccc(Cl)cc2)ccc1=O (stereo not shown) [Compound 31, 2-[3-(4-Chlorophenyl)-6-oxo-1,6-dihydropyridazin-1-yl]-N-[4-(trifluoromethyl)phenyl]propanamide]	+ (activity <150% of a CFTR amplifier with compound at concentration shown and amplifier at 3 μM)	+ (activity <150% of a CFTR amplifier with compound at concentration shown and amplifier at 3 μM)
CC(C(=O)Nc1ccc(C(F)(F)F)cc1)n1nc(-c2cccc(Cl)c2)ccc1=O (stereo not shown) [Compound 30, 2-[3-(3-Chlorophenyl)-6-oxo-1,6-dihydropyridazin-1-yl]-N-[4-(trifluoromethyl)phenyl]propanamide]	++ (activity >150% of a CFTR amplifier with compound at concentration shown and amplifier at 3 μM)	++ (activity >150% of a CFTR amplifier with compound at concentration shown and amplifier at 3 μM)
COc1cccc(-c2ccc(=O)n(C(C)C(=O)Nc3ccc(C(F)(F)F)c(C(F)(F)F)c3)n2)c1 (stereo not shown) [Compound 47, N-[3,4-Bis(trifluoromethyl)phenyl]-2-[3-(3-methoxyphenyl)-6-oxo-1,6-dihydropyridazin-1-yl]propanamide]	++ (activity >150% of a CFTR amplifier with compound at concentration shown and amplifier at 3 μM)	++ (activity >150% of a CFTR amplifier with compound at concentration shown and amplifier at 3 μM)
CC(C(=O)Nc1ccc(C(F)(F)F)cc1)n1nc(-c2ccc(C(F)(F)F)cc2)ccc1=O (stereo not shown) [Compound 34, 2-[6-Oxo-3-[4-(trifluoromethyl)phenyl]-1,6-dihydropyridazin-1-yl]-N-[4-(trifluoromethyl)phenyl]propanamide]	+ (activity <150% of a CFTR amplifier with compound at concentration shown and amplifier at 3 μM)	+ (activity <150% of a CFTR amplifier with compound at concentration shown and amplifier at 3 μM)
COc1cccc(-c2ccc(=O)n(C(C)C(=O)Nc3ccc(Cl)c(Cl)c3)n2)c1 (stereo not shown) [Compound 27, N-(3,4-Dichlorophenyl)-2-[3-(3-methoxyphenyl)-6-oxo-1,6-dihydropyridazin-1-yl]propanamide]	++ (activity >150% of a CFTR amplifier with compound at concentration shown and amplifier at 3 μM)	++ (activity >150% of a CFTR amplifier with compound at concentration shown and amplifier at 3 μM)
CC(C(=O)Nc1cc(F)cc(F)c1)n1nc(-c2cccc(OC(F)(F)F)c2)ccc1=O (stereo not shown) [Compound 2, N-(3,5-Ddifluorophenyl)-2-[6-oxo-3-[3-(trifluoromethoxy)phenyl]-1,6-dihydropyridazin-1-yl]propanamide]	+ (activity <150% of a CFTR amplifier with compound at concentration shown and amplifier at 3 μM)	+ (activity <150% of a CFTR amplifier with compound at concentration shown and amplifier at 3 μM)
COc1cccc(-c2cc(Cl)c(=O)n(C(C)C(=O)Nc3cc(F)cc(F)c3)n2)c1 (stereo not shown) [Compound 22, 2-(5-Chloro-3-(3-methoxyphenyl)-6-oxopyridazin-1(6H)-yl)-N-(3,5-difluorophenyl)propanamide]	+ (activity <150% of a CFTR amplifier with compound at concentration shown and amplifier at 3 μM)	+ (activity <150% of a CFTR amplifier with compound at concentration shown and amplifier at 3 μM)
COc1cccc(-c2nn(C(C)C(=O)Nc3cc(F)cc(F)c3)c(=O)cc2-c2ccccc2)c1 (stereo not shown) [Compound 24, N-(3,5-Difluorophenyl)-2-[3-(3-methoxyphenyl)-6-oxo-4-phenyl-1,6-dihydropyridazin-1-yl]propanamide]	++ (activity >150% of a CFTR amplifier with compound at concentration shown and amplifier at 3 μM)	++ (activity >150% of a CFTR amplifier with compound at concentration shown and amplifier at 3 μM)
CC(C(=O)Nc1ccc(C(F)(F)F)cc1)n1nc(-c2ccc(C#N)cc2)ccc1=O (stereo not shown) [Compound 37, 2-[3-(4-Cyanophenyl)-6-oxo-1,6-dihydropyridazin-1-yl]-N-[4-(trifluoromethyl)phenyl]propanamide]	+ (activity <150% of a CFTR amplifier with compound at concentration shown and amplifier at 3 μM)	+ (activity <150% of a CFTR amplifier with compound at concentration shown and amplifier at 3 μM)
CC(C(=O)Nc1cc(F)cc(F)c1)n1nc(-c2cccc(N(C)C)c2)ccc1=O (stereo not shown) [Compound 4, N-(3,5-Difluorophenyl)-2-[3-[3-(dimethylamino)phenyl]-6-oxo-1,6-dihydropyridazin-1-yl]propanamide]		+ (activity <150% of a CFTR amplifier with compound at concentration shown and amplifier at 3 μM)
COc1cccc(-c2ccc(=O)n(CC(=O)Nc3cc(F)cc(F)c3)n2)c1 [Compound 16, N-(3,5-Difluorophenyl)-2-[3-(3-methoxyphenyl)-6-oxo-1,6-dihydropyridazin-1-yl]acetamide]		+ (activity <150% of a CFTR amplifier with compound at concentration shown and amplifier at 3 μM)
COc1cccc(-c2cc(C)c(=O)n(C(C)C(=O)Nc3cc(F)cc(F)c3)n2)c1 (stereo not shown) [Compound 20, N-(3,5-Difluorophenyl)-2-[3-(3-methoxyphenyl)-5-methyl-6-oxo-1,6-dihydropyridazin-1-yl]propanamide]	+ (activity <150% of a CFTR amplifier with compound at concentration shown and amplifier at 3 μM)	+ (activity <150% of a CFTR amplifier with compound at concentration shown and amplifier at 3 μM)
COc1cccc(-c2ccc(=O)n(C(C)C(=O)Nc3ccccc3)n2)c1 (stereo not shown) [Compound 15, 2-[3-(3-Methoxyphenyl)-6-oxo-1,6-dihydropyridazin-1-yl]-N-phenylpropanamide]	+ (activity <150% of a CFTR amplifier with compound at concentration shown and amplifier at 3 μM)	+ (activity <150% of a CFTR amplifier with compound at concentration shown and amplifier at 3 μM)
CC(C(=O)Nc1ccc(C(F)(F)F)cc1)n1nc(-c2cccc(C(F)(F)F)c2)ccc1=O (stereo not shown) [Compound 33, 2-[6-Oxo-3-[3-(trifluoromethyl)phenyl]-1,6-dihydropyridazin-1-yl]-N-[4-(trifluoromethyl)phenyl]propanamide]	++ (activity >150% of a CFTR amplifier with compound at concentration shown and amplifier at 3 μM)	++ (activity >150% of a CFTR amplifier with compound at concentration shown and amplifier at 3 μM)
